Results from patent publication US20240109912A1, “TRICYCLIC PYRIMIDINES AS CYCLIN-DEPENDENT KINASE 7 (CDK7) INHIBITORS” (JANSSEN PHARMACEUTICA NV, priority 2020, published 2024).
Values joined by “and” are separate entries in the source; they are usually repeats but may differ in a detail not shown here. Equal values may be shown once. Read-outs that look alike come from different tables or passages of the source.

How the values were obtained:
[1] = test system: RNA polymerase II Serine 5 phosphorylation in A549 cells overexpressing CDK7 mutant (C312S); experiment: Imaging-based cellular RNA PolII Ser5 phosphorylation assay in A549 cells overexpressing CDK7-mutant (C312S); assay type: cell-based, human; conditions: for IC50: Homo sapiens, A549, A549 cells overexpressing CDK7 mutant (C312S), read-out: CDK7_ A549 mutant hCDK7(pIC50) (converted); for CDK7_ A549 mutant hCDK7(pIC50): A549 cells overexpressing CDK7 mutant (C312S)
Method: Data were calculated and analyzed in Phaedra.
From this an IC50 value can be obtained.
In parallel this assay was performed in A549 cells overexpressing CDK7-mutant (C312S) to evaluate the effect of the covalent bond on potency and to screen for potential off-target effects. Mutation of Cysteine to Serine (C312S), a less nucleophilic amino acid, prevents CDK7 inhibitors from covalently binding to CDK7 and from inhibiting CDK7 activity in an irreversible manner. A stably transduced A549 cell pool was generated that overexpresses CDK7 mutant (C312S), but also expresses endogenous CDK7-WT. Covalent binders targeting the cysteine at position 312 will show a shift in potency in A549 cells overexpressing mutant C312S CDK7.

[2] = test system: RNA polymerase II Serine 5 phosphorylation (CDK7) in A549 cells
[3] = target: CDK7/cyclinH/MAT1 trimeric complex (Homo sapiens (Human), UniProt P50613); experiment: In vitro CDK7 assay, potency of irreversible covalent inhibitors (kinact/KI)
Chain of CDK7/cyclinH/MAT1 trimeric complex (P50613 whole entry): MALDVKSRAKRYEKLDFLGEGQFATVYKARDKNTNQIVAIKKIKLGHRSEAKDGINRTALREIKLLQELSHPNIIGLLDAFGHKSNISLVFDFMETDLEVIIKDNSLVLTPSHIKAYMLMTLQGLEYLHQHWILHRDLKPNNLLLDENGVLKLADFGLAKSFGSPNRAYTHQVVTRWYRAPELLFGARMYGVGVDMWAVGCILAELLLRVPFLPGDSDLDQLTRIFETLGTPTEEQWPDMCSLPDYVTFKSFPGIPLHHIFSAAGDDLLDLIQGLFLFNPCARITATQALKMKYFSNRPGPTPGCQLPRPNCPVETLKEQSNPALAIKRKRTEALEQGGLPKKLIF
Chain of CDK7/cyclinH/MAT1 trimeric complex (P51946 whole entry partner): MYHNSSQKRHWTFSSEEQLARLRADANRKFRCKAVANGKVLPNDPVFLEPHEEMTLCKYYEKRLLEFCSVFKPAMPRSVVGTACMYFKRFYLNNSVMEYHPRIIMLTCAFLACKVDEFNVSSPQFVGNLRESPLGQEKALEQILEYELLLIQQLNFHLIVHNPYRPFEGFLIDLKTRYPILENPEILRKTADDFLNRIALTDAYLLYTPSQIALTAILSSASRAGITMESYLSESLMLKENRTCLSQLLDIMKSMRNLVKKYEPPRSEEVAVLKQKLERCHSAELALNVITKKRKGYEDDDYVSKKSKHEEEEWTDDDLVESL
Chain of CDK7/cyclinH/MAT1 trimeric complex (P51948 whole entry partner): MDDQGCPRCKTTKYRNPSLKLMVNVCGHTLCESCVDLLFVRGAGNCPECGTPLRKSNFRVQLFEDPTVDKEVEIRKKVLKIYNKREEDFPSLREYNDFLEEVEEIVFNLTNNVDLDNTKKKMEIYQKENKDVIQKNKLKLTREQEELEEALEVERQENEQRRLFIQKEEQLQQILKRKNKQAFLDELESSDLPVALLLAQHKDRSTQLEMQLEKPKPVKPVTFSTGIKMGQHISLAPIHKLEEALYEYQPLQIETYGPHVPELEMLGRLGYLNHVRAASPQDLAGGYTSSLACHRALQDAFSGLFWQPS

[4] = CDK7 (20 nM enz.) (KI, μM), 20 nM enz.
[5] = read-out: CDK7 (20 nM enz.) (kinact, s^−1), 20 nM enz.
[6] = read-out: CDK7 (20 nM enz.) (kinact/ KI, M^−1*s^−1), 20 nM enz.
[7] = read-out: CDK7 (kinact, s^−1), Table B
[8] = read-out: CDK7 (kinact/KI, M^−1*s^−1), Table B

| SMILES | IC50 [1] [nM] | IC50 [2] | Ki [3, 4] | kinact [3, 5] [s⁻¹] | kinact/KI [3, 6] [M⁻¹ s⁻¹] | Ki ([3]; CDK7 (KI(μM)), Table B) [µM] | kinact [3, 7] [s⁻¹] | kinact/KI [3, 8] [M⁻¹ s⁻¹] | kinact/KI ([3]; read-out: CDK7 (20 nM enz.) (kobs/[I], M^−1*s^−1), 20 nM enz.) [M⁻¹ s⁻¹] | CDK7_ A549 mutant hCDK7(pIC50) [1] | CDK7 (20 nM enz.) (kinact/ KI, M^−1*s^−1) ([3]; 20 nM enz.) [M⁻¹ s⁻¹] | CDK7 (20 nM enz.) (kobs/[I], M^−1*s^−1) ([3]; 20 nM enz.) [M⁻¹ s⁻¹] | CDK7 (20 nM enz.) (kinact, s^−1) ([3]; 20 nM enz.) [s⁻¹] |
| --- | --- | --- | --- | --- | --- | --- | --- | --- | --- | --- | --- | --- | --- |
| C=CC(=O)N1CC(N2CC[C@@H](c3ccc4c(c3)Nc3ncnc(N5CCOCC5)c3CO4)C2)C1 [compound 10] | > 10000 | 1820 nM | – | – | – | 0.38 | 0.000155 | 409 | – | – | – | – | – |
| C=CC(=O)N1CCC(N2CC(c3cc(C#N)c4c(c3)Nc3ncnc(-c5cnn(C)c5)c3CO4)C2)CC1 [compound 73] | > 10000 | 1660 nM | 1.24 µM | 3.75e-05 | 30.2 | – | – | – | – | – | – | – | – |
| C=CC(=O)N1CC(N2CC[C@H](c3ccc4c(c3)Nc3ncnc(N5CCOCC5)c3CO4)C2)C1 (single isomer, unassigned) [compound 9] | > 10000 | 2090 nM | – | – | – | 0.72 | 0.000216 | 306 | – | – | – | – | – |
| C=CC(=O)N1CC[C@H](N2CC(c3cc(C)c4c(c3)Nc3ncnc(N5CCS(=O)(=O)CC5)c3[C@@H](C)O4)C2)C1 (single isomer, unassigned) [compound 121] | – | 28.2 nM and ~31.6 nM | – | – | – | – | – | – | – | <5 | 611.255 | 1089.23 | – |
| C=CC(=O)N1CC[C@H](N2CC(c3cc(C)c4c(c3)Nc3ncnc(N5CCS(=O)(=O)CC5)c3[C@H](C)O4)C2)C1 (single isomer, unassigned) [compound 116] | > 10000 | 191 nM and 269 nM | 0.3 µM and 0.189 µM | 4.57e-05 | 152 | – | – | – | – | <5 | 206.471 | – | 3.89e-05 |
| C=CC(=O)N1CCC(N2CC(c3cc(F)c4c(c3)Nc3ncnc(N5CCOCC5)c3[C@@H](C)O4)C2)CC1 [compound 27] | > 10000 | 4790 nM | 5.21 µM | 4.89e-05 | 9.39 | – | – | – | – | – | – | – | – |
| C=CC(=O)N1CC(N2CC[C@H](c3cc4c(c(C)n3)OCc3c(ncnc3N3CCS(=O)(=O)CC3)N4)C2)C1 [compound 31] | > 10000 | 2750 nM | 0.226 µM | 5.87e-05 | 260 | – | – | – | – | – | – | – | – |
| C=CC(=O)N1CC(N2CCC(c3cc(C)c4c(c3)Nc3ncnc(N5CCCC(C#N)C5)c3CO4)CC2)C1 (centres unmarked) [compound 67] | > 10000 | 1320 nM | 1.2 µM | 0.000103 | 85.8 | – | – | – | – | – | – | – | – |
| C=CC(=O)N1CC[C@@H](N2CC(c3cc(F)c4c(c3)Nc3ncnc(N5CCOCC5)c3CO4)C2)C1 (single isomer, unassigned) [compound 55] | > 10000 | 933 nM | 1.04 µM | 6.83e-05 | 65.7 | – | – | – | – | – | – | – | – |
| C=CC(=O)N1CC(N2CC(c3cc(C)c4c(c3)Nc3ncnc(N5CCS(=N)(=O)CC5)c3CO4)C2)C1 [compound 110] | > 10000 | 813 nM | 0.0322 µM | 4.3e-05 | 1330 | – | – | – | – | – | – | – | – |
| C=CC(=O)N1CC(N2CCC(c3cc(C)c4c(c3)Nc3ncnc(N5CCC(C#N)CC5)c3CO4)CC2)C1 [compound 69] | > 10000 | 1580 nM | 1.1 µM | 6.3e-05 | 57.2 | – | – | – | – | – | – | – | – |
| C=CC(=O)N1CC[C@H](N2CCC(c3cc(C)c4c(c3)Nc3ncnc(N5CCOCC5)c3CO4)CC2)C1 [compound 12] | > 10000 | 457 nM and 282 nM | 0.191 µM and 0.498 µM | 7.04e-05 | 368 | – | – | – | – | – | 256.184 | – | 0.0001275 |
| CC#CC(=O)N1CC(N2CCC(c3cc(C)c4c(c3)Nc3ncnc(N5CCS(=O)(=O)CC5)c3[C@H](C)O4)CC2)C1 (single isomer, unassigned) [compound 150] | > 10000 | 316 nM and 457 nM | 0.283 µM and 0.18 µM | 6.55e-05 | 231 | – | – | – | – | – | 261.659 | – | 4.7e-05 |
| C=CC(=O)N1CC(N2CCC(c3cc(C)c4c(c3)Nc3ncnc(N5CCC(S(C)(=O)=O)C5)c3CO4)CC2)C1 (centres unmarked) [compound 65] | > 10000 | 6460 nM | 4.12 µM | 0.0001 | 24.3 | – | – | – | – | – | – | – | – |

Further compounds by falling IC50 [2], results first:

| IC50 [1] [nM] | IC50 [2] | Ki [3, 4] | kinact [3, 5] [s⁻¹] | kinact/KI [3, 6] [M⁻¹ s⁻¹] | Ki ([3]; CDK7 (KI(μM)), Table B) [µM] | kinact [3, 7] [s⁻¹] | kinact/KI [3, 8] [M⁻¹ s⁻¹] | kinact/KI ([3]; read-out: CDK7 (20 nM enz.) (kobs/[I], M^−1*s^−1), 20 nM enz.) [M⁻¹ s⁻¹] | CDK7_ A549 mutant hCDK7(pIC50) [1] | CDK7 (20 nM enz.) (kinact/ KI, M^−1*s^−1) ([3]; 20 nM enz.) [M⁻¹ s⁻¹] | CDK7 (20 nM enz.) (kobs/[I], M^−1*s^−1) ([3]; 20 nM enz.) [M⁻¹ s⁻¹] | CDK7 (20 nM enz.) (kinact, s^−1) ([3]; 20 nM enz.) [s⁻¹] | SMILES |
| --- | --- | --- | --- | --- | --- | --- | --- | --- | --- | --- | --- | --- | --- |
| > 10000 | ~617 nM | 0.208 µM | 6.38e-05 | 307 | – | – | – | – | – | – | – | – | C=CC(=O)N1CC(N2CC[C@@H](c3cc(C)c4c(c3)Nc3ncnc(N5CCOCC5)c3CO4)C2)C1 [compound 22] |
| > 10000 | 457 nM | 0.856 µM | 8.38e-05 | 103 | – | – | – | – | – | – | – | – | C#Cc1cc(C2CCN(C3CN(C(=O)C#CC)C3)CC2)cc2c1O[C@H](C)c1c(ncnc1N1CCS(=O)(=O)CC1)N2 [compound 192] |
| > 10000 | 363 nM | 0.31 µM | 4.82e-05 | 156 | – | – | – | – | – | – | – | – | C=CC(=O)N1CC(N2CCC(c3cc(C)c4c(c3)Nc3ncnc(-c5cn(C)nc5C)c3CO4)CC2)C1 [compound 81] |
| > 10000 | 324 nM | 0.643 µM | 8.79e-05 | 137 | – | – | – | – | – | – | – | – | C=CC(=O)N1CC[C@@H](N2CCC(c3cc(F)c4c(c3)Nc3ncnc(N5CCOCC5)c3CO4)CC2)C1 (single isomer, unassigned) [compound 51] |
| 8910 | 288 nM | 0.0411 µM | 3.59e-05 | 874 | – | – | – | – | – | – | – | – | C=CC(=O)N1CCC(N2CCC(c3cc(C)c4c(c3)Nc3ncnc(N5CCOCC5)c3CO4)CC2)C1 (centres unmarked) [compound 11] |
| > 10000 | 282 nM | 0.121 µM | 3.13e-05 | 259 | – | – | – | – | – | – | – | – | C=CC(=O)N1CCC(N2CC(c3cc(C)c4c(c3)Nc3ncnc(N5CCS(=N)(=O)CC5)c3CO4)C2)CC1 [compound 105] |
| > 10000 | 245 nM | 0.0858 µM | 6.75e-05 | 786 | – | – | – | – | – | – | – | – | C=CC(=O)N1CC(N2CCC(c3cc(C#N)c4c(c3)Nc3ncnc(N5CCOCC5)c3CO4)CC2)C1 [compound 106] |
| > 10000 | 245 nM | 0.175 µM | 7.35e-05 | 420 | – | – | – | – | – | – | – | – | C=CC(=O)N1CC(N2CCC(c3cc4c(c(C5CC5)c3)OCc3c(ncnc3N3CCOCC3)N4)CC2)C1 [compound 47] |
| > 10000 | 191 nM | 0.1 µM | 8.29e-05 | 809 | – | – | – | – | – | – | – | – | C#Cc1cc(C2CCN(C3CN(C(=O)C#CC)C3)CC2)cc2c1O[C@@H](C)c1c(ncnc1N1CCS(=O)(=O)CC1)N2 [compound 191] |
| 832 | 138 nM | – | – | – | – | – | – | 1090 | – | – | – | – | C=CC(=O)N1CC(N2CCC(c3cc(C)c4c(c3)Nc3ncnc(N5CCS(=N)(=O)CC5)c3CO4)CC2)C1 [compound 72] |
| > 10000 | 115 nM | 0.0135 µM | 9.88e-05 | 7340 | – | – | – | – | – | – | – | – | [2H]C1(N2CCC(c3cc(C)c4c(c3)Nc3ncnc(N5CCS(=O)(=O)CC5)c3[C@@H](C)O4)CC2)CN(C(=O)C#CC)C1 [compound 160] |
| > 10000 | ~53.7 nM | 0.00416 µM | 5.87e-05 | 14100 | – | – | – | – | – | – | – | – | CC#CC(=O)N1CCC(N2CCN(c3cc(C)c4c(c3)Nc3ncnc(N5CCS(=O)(=O)CC5)c3[C@@H](C)O4)CC2)CC1 [compound 154] |
